Assays:
[1] = open observational study of blood lipid values under α-lipoic acid therapy; total population and individual-parameter analysis; format: in vivo, patients
Experimental: A somewhat smaller group was treated with α-lipoic acid, but not with captopril (n=280). The treatment time extended over approximately 3 months. α-Lipoic acid was predominantly administered orally or parenterally in a dose of 600 mg per day. Captopril was ingested orally in daily doses of 12.5 to 50 mg. At the beginning of therapy and at the end of observation after three months, the blood lipid values were optionally recorded. […] Because of the different basic treatment, the patients with combined therapy of α-lipoic acid and captopril and those with a single therapy with α-lipoic acid were placed in subgroups for this purpose: the 160 remaining patients (those with single therapy with captopril, n=154; those without treatment data n=6) were not included in the further analysis, since in this remaining group, only a small, incomparable number of patients had initial values corresponding to the range named under point 2 (triglycerides n=0, total cholesterol n=63, HDL cholesterol n=0, LDL cholesterol n=32). In a first analysis, the parameters were represented independently of one another, i.e., all patients, who had the initial values given below for the parameter, were included for each parameter: triglycerides >6 mmoles/l; total cholesterol >6 mmoles/l HDL cholesterol 0.7-0.8 mmole/l; LDL cholesterol >2.5 mmoles/l. The limits of the range were selected based on the studies reported in the literature (H. Thuro, Effective decrease in cholesterol and triglycerides with atorvastatin, Supplement in Der Internist 1996; 37 (8), 1-8).

[2] = same observational study; patients assigned to three groups by disease pattern (DGFF guidelines); format: in vivo
Experimental: A somewhat smaller group was treated with α-lipoic acid, but not with captopril (n=280). The treatment time extended over approximately 3 months. α-Lipoic acid was predominantly administered orally or parenterally in a dose of 600 mg per day. Captopril was ingested orally in daily doses of 12.5 to 50 mg.
In another consideration, the patients were assigned to three groups on the basis of their disease pattern, independent of the form of therapy, according to the “Guidelines of the German Association for Combatting Disorders of Lipid Metabolism and Their Sequelae DGFF (Lipid-Liga) e.V.” (Supplement to the German Ärzteblatte 1996; 4, 1-8):
1) isolated LDL-hypercholesterolemia (LDL>4.14, triglycerides≦2.2 mmoles/l);
2) combined LDL-hypercholesterolemia (LDL>4.14, triglycerides>2.2 mmoles/l);
3) isolated hypertriglyceridemia (LDL≦4.14, triglycerides>2.2 mmoles/l).
Standard values from the literature were set as limiting values (Wilson et al., Harrison's Principles of Internal Medicine, 12Edition, McGraw-Hill, 1991).
Sixty-two patients were placed in the first group, 112 patients in the second group, and 83 patients in the third group.

[3] = doses of approximately 600 mg/day; treatment of polyneuropathy; cited from earlier work
[4] = total population, start vs end of observation after three months, predominantly 600 mg per day
[5] = group 2 combined LDL-hypercholesterolemia
[6] = group 2 combined LDL-hypercholesterolemia, 91 paired values, p<0.0001

## O=C(O)CCCCC1CCSS1 (stereo not drawn) [α-lipoic acid, 5-(1,2-dithiolan-3-yl) valeric acid]
[1]; patients with initial HDL 0.7-0.8 mmole/l, all patients, prior mean 0.76 (n=33), end n=13, increase not significant
  HDL cholesterol, mean end value: 0.97 mmol/L
[1]; patients with initial HDL 0.7-0.8 mmole/l, not significant
  percent increase of HDL cholesterol, on average: over 20%
[1]; patients with initial LDL >2.5 mmoles/l, all patients, prior mean 4.41 (n=336), end n=208, p<0.001
  LDL cholesterol, mean end value: 4.03 mmol/L
[1]; patients with initial LDL >2.5 mmoles/l, in all groups
  percent decrease of LDL cholesterol, on average: approximately 10%
[1]; patients with initial total cholesterol >6 mmoles/l, in all groups
  mean percent decrease of total cholesterol: approximately 10%
[1]; patients with initial total cholesterol >6 mmoles/l, prior mean 7.32 (n=853), 570 paired values, p<0.0001
  total cholesterol, mean end value: 6.57 mmol/L
[1]; patients with initial triglycerides >6 mmoles/l, all patients, prior mean 8.96 (n=33), end n=26, p<0.05, approx. 3 months
  triglycerides, mean end value: 7.16 mmol/L
[1]; patients with initial triglycerides >6 mmoles/l, in all groups (total, combined with captopril, single therapy)
  mean percentual decrease of triglycerides: greater than 20%
[1]; single therapy of α-lipoic acid vs combined therapy with captopril
  observed changes of all lipid parameters, single therapy compared with combined therapy with captopril: more strongly pronounced
[1]; [4]
  change of HDL cholesterol: slight increase
  change of LDL cholesterol: statistically striking decrease
  change of total cholesterol: statistically striking decrease
[1]; total population, start vs end of observation after three months, predominantly 600 mg per day oral or parenteral
  change of triglycerides: statistically striking decrease
[2]; group 1, 34 paired values, not significant
  HDL cholesterol, percent increase: approximately 10%
[2]; group 1 isolated LDL-hypercholesterolemia
  total cholesterol, percent decrease: 8%
[2]; group 1 isolated LDL-hypercholesterolemia, initial 7.01 (n=62), end n=40
  total cholesterol, end value: 6.49 mmol/L
[2]; group 1 isolated LDL-hypercholesterolemia, p<0.0001
  LDL cholesterol, mean percent decrease: 16%
[2]; group 1 isolated LDL-hypercholesterolemia, prior 1.29 (n=61), end n=34
  HDL cholesterol, end value: 1.34 mmol/L
[2]; group 1 isolated LDL-hypercholesterolemia, prior 1.69, n=38, increase not significant
  triglycerides, average end value: 1.70 mmol/L
[2]; group 1 isolated LDL-hypercholesterolemia, prior 5.02, n=33
  LDL cholesterol, end value: 4.33 mmol/L
[2]; [5]
  HDL cholesterol, percent increase: 4.5%
  total cholesterol, percent decrease: ~10%
[2]; [6]
  triglycerides, absolute difference (decrease): 0.83 mmol/L
  triglycerides, percent decrease: 20%
[2]; group 2 combined LDL-hypercholesterolemia, p<0.0001
  LDL cholesterol, mean percent decrease: 14%
[2]; group 2 combined LDL-hypercholesterolemia, prior 1.15 (n=108), end n=77
  HDL cholesterol, end value: 1.15 mmol/L
[2]; group 2 combined LDL-hypercholesterolemia, prior 5.42, n=74
  LDL cholesterol, end value: 4.75 mmol/L
[2]; group 2 combined LDL-hypercholesterolemia, prior 7.71 (n=112), end n=94
  total cholesterol, end value: 6.86 mmol/L
[2]; group 2 combined LDL-hypercholesterolemia, prior value 3.75, 91 paired values
  triglycerides, end value: 2.74 mmol/L
[2]; group 3, 59 paired values, p<0.01
  HDL cholesterol, percent increase: approximately 15%
[2]; group 3 isolated hypertriglyceridemia
  total cholesterol, percent decrease: about 5%
[2]; group 3 isolated hypertriglyceridemia, initial 3.29, n=59, change not significant
  LDL cholesterol, end value: 3.23 mmol/L
[2]; group 3 isolated hypertriglyceridemia, initial 6.31 (n=83), end n=67
  total cholesterol, end value: 5.88 mmol/L
[2]; group 3 isolated hypertriglyceridemia, n=67, p<0.0001
  triglycerides, percent reduction: about 16%
[2]; group 3 isolated hypertriglyceridemia, prior 1.19 (n=83), end n=59
  HDL cholesterol, end value: 1.31 mmol/L
[2]; group 3 isolated hypertriglyceridemia, prior 3.33 (n=83), n=67, p<0.0001
  triglycerides, end value: 2.69 mmol/L
[2]; isolated LDL hypercholesterolemia (group 1)
  decrease in ratio of LDL to HDL cholesterol: 16.97%
[2]; isolated LDL hypercholesterolemia (group 1), prior value 3.89
  ratio of LDL to HDL cholesterol, end value: 3.23
[2]; mixed hyperlipidemia (group 2)
  decrease in ratio of LDL to HDL cholesterol: 12.31%
[2]; mixed hyperlipidemia (group 2), prior value 4.71
  ratio of LDL to HDL cholesterol, end value: 4.13
[2]; patients without LDL cholesterinolemia (group 3), initial value in normal range
  improvement in ratio of LDL to HDL cholesterol: 10.51%
[3]
  compatibility of oral and parenteral therapy: very good
